Data taken from ChEMBL document CHEMBL4184317, “Discovery of Tetrahydroquinoxalines as Bromodomain and Extra-Terminal Domain (BET) Inhibitors with Selectivity for the Second Bromodomain” (J Med Chem, 2018).
Values after ≈ are worked out from the molar mass of the structure shown.

Columns and labels:
[1] = target: Chromatin remodeling regulator CECR2 (Homo sapiens, UniProt Q9BXF3); assay: Binding affinity to human partial length DNA-tagged CECR2 expressed in bacteria by BROMOscan method
[2] = target: T1, Bromodomain-containing protein 3 (Homo sapiens, UniProt Q15059); assay: Inhibition of BRD3 BD2 (unknown origin) after 30 mins by TR-FRET assay
Target sequence in this assay (Q15059 whole entry): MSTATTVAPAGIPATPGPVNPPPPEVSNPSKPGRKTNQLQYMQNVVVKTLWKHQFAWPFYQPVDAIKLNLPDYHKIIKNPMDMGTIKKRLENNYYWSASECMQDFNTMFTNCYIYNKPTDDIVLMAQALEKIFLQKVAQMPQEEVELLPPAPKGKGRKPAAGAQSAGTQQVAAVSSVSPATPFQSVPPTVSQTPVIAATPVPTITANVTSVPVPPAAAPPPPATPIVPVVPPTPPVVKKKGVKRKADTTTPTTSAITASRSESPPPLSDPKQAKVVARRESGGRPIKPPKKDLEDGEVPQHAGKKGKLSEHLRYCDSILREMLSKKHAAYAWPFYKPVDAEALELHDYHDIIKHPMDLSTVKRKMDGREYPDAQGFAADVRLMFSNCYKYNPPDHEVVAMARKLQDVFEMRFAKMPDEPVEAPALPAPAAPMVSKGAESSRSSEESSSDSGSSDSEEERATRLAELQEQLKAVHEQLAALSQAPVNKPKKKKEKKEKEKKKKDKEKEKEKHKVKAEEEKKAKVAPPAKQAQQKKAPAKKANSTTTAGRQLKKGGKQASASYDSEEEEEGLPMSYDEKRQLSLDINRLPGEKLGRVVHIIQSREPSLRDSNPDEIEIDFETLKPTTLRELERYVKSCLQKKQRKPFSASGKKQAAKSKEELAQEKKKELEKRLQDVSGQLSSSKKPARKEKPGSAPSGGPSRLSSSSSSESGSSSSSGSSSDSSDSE

[3] = target: T1, Bromodomain-containing protein 3; assay: Inhibition of BRD3 BD1 (unknown origin) after 30 mins by TR-FRET assay
Target sequence in this assay (Q15059 whole entry): as above

Homo sapiens [4] = organism: Homo sapiens; assay: Selectivity ratio of IC50 for human BRD2 BD1 to IC50 for human BRD2 BD2
[5] = Permeability of the compound by PAMPA; assay type: ADME; details: read-out: permeability
Peregrin = target: T2, Peregrin (Homo sapiens, UniProt P55201); assay: Displacement of Alexa 647 ligand from 6H-Flag-Tev-BRPF1 (622 to 738 residues) (unknown origin) expressed in Escherichia coli BL21 (DE3) cells after 30 mins by TR-FRET assay
T2 sequence (P55201 whole entry): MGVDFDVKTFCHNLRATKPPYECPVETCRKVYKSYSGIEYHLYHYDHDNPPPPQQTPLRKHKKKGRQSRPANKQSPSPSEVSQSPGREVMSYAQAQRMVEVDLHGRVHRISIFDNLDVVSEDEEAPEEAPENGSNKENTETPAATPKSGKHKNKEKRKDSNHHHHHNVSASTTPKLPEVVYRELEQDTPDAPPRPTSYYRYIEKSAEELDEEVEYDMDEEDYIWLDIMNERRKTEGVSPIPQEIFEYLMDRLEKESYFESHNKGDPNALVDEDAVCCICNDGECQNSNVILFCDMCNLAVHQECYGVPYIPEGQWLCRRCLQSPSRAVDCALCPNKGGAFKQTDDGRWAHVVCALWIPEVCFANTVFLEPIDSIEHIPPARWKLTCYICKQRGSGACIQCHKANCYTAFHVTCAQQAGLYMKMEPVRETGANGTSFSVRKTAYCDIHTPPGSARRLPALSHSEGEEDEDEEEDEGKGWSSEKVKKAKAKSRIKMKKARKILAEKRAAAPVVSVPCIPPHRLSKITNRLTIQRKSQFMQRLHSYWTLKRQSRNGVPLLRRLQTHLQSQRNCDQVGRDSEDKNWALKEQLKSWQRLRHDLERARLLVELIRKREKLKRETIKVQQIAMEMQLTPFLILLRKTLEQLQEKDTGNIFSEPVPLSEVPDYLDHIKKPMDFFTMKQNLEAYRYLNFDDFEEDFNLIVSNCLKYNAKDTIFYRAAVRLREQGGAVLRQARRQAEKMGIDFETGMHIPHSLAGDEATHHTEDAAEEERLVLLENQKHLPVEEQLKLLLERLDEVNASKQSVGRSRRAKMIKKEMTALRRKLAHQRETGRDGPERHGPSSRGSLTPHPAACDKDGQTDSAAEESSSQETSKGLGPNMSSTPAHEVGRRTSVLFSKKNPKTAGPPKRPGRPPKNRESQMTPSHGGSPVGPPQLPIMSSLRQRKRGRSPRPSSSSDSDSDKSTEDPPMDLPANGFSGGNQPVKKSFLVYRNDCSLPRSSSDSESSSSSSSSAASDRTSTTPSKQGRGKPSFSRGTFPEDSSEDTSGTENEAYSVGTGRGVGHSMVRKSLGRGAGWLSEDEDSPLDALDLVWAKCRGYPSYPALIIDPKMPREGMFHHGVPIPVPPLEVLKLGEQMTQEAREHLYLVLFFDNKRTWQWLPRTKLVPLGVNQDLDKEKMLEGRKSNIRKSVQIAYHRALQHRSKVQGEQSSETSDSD

[6] = target: E3 ubiquitin-protein ligase TRIM33 (Homo sapiens, UniProt Q9UPN9); assay: Binding affinity to human partial length DNA-tagged TRIM33(PHD,Bromo.) expressed in bacteria by BROMOscan method
Chain of E3 ubiquitin-protein ligase TRIM33 (Q9UPN9 whole entry): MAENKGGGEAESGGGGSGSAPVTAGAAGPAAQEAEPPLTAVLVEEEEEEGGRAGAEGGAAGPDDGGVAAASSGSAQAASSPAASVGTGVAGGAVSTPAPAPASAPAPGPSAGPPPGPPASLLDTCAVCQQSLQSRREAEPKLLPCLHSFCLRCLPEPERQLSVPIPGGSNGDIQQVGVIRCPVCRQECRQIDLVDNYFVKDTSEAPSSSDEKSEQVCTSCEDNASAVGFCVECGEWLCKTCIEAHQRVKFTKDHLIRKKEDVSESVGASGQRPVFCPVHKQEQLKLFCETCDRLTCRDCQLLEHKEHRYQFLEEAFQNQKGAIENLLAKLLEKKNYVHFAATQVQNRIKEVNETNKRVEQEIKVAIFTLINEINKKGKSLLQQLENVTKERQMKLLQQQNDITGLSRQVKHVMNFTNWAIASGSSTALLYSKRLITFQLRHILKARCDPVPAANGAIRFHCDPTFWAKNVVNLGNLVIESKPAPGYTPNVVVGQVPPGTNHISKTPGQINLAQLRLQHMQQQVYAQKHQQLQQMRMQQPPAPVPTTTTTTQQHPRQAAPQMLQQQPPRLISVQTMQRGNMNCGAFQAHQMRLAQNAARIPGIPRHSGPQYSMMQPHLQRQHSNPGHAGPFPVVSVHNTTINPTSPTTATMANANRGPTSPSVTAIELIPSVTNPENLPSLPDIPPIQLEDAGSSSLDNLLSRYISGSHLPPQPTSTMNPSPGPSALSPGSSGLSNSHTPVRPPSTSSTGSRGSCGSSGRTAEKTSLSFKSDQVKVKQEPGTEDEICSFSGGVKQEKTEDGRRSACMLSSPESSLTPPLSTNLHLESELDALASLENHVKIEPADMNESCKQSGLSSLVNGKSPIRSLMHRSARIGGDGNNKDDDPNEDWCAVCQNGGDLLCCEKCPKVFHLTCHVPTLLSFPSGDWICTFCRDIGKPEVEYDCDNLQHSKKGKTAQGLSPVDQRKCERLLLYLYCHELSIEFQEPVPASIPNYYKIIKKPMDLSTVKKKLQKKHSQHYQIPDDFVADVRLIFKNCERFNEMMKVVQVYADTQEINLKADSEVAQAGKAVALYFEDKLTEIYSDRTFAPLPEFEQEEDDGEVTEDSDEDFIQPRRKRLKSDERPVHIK

Blood = assay: Antiinflammatory activity in human whole blood assessed as inhibition of LPS-induced MCP1 release preincubated for 30 mins followed by LPS challenge measured after 24 hrs by immunoassay; assay type: functional, tissue-based
[7] = target: T3, Bromodomain-containing protein 2 (Homo sapiens, UniProt P25440); assay: Inhibition of human BRD2 BD1 after 30 mins by TR-FRET assay
T3 sequence (P25440 whole entry): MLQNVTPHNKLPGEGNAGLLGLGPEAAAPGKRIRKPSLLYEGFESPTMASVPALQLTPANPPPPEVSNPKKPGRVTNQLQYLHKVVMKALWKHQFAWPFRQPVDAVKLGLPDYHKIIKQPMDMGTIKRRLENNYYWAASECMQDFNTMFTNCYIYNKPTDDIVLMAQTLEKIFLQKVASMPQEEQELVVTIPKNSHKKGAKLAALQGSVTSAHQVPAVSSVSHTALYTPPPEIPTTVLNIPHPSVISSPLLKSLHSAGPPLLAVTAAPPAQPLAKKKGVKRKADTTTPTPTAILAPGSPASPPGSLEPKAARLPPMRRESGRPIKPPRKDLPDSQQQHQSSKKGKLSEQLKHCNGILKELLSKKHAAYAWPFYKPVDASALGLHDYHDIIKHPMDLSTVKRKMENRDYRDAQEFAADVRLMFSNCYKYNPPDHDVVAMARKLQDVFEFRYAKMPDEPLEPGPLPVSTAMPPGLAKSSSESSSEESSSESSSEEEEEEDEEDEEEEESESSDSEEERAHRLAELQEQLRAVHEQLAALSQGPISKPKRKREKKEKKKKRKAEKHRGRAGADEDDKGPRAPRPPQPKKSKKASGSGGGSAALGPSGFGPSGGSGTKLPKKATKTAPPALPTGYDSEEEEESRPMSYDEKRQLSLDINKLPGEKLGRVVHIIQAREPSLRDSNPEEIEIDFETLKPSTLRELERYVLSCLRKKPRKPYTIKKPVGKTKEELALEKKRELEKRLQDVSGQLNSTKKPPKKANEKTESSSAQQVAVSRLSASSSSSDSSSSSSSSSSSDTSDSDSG

[8] = target: Bromodomain-containing protein 4 (Homo sapiens, UniProt O60885, Y390A)
PBMC = assay: cells; details: Homo sapiens, read-out: pIC50 (converted)
Description: Antiinflammatory activity in human PBMC assessed as inhibition of LPS-induced MCP1 release preincubated for 30 mins followed by LPS challenge measured after 24 hrs by immunoassay

[9] = target: T3, Bromodomain-containing protein 2; assay: Inhibition of human BRD2 BD2 after 30 mins by TR-FRET assay
[10] = Solubility of the compound in FaSSIF at pH 6.5 after 16 hrs by HPLC method; assay type: physicochemical
Homo sapiens [11] = organism: Homo sapiens; assay: Selectivity ratio of IC50 for BRD3 BD1 (unknown origin) to IC50 for BRD3 BD2 (unknown origin)
[12] = target: Bromodomain and WD repeat-containing protein 1 (Homo sapiens, UniProt Q9NSI6); assay: Binding affinity to human partial length DNA-tagged […] BD2 expressed in bacterial by BROMOscan method
[13] = target: T4, Bromodomain-containing protein 4 (Homo sapiens, UniProt O60885); assay: Binding affinity to human partial length DNA-tagged BRD4 isoform long BD1 expressed in bacterial by BROMOscan method
physchem = details: buffer, pH 7.4
Description: Chromatographic hydrophobicity index, log D of the compound at pH 7.4 by HPLC method

[14] = target: Histone acetyltransferase KAT2A (Homo sapiens, UniProt Q92830); assay: Binding affinity to human partial length DNA-tagged GCN5L2 expressed in bacteria by BROMOscan method
[15] = target: Transcription initiation factor TFIID subunit 1 (Homo sapiens, UniProt P21675); assay: Binding affinity to human partial length DNA-tagged TAF1 BD2 expressed in bacterial by BROMOscan method
[16] = target: Bromodomain adjacent to zinc finger domain protein 2B (Homo sapiens, UniProt Q9UIF8); assay: Binding affinity to human partial length DNA-tagged BAZ2B expressed in bacterial by BROMOscan method
[17] = target: T1, Bromodomain-containing protein 3; assay: Selectivity ratio of Kd for human partial length DNA-tagged BRD3 BD1 to Kd for human partial length DNA-tagged BRD3 BD2
Target sequence in this assay (Q15059 2-726 limits assumed): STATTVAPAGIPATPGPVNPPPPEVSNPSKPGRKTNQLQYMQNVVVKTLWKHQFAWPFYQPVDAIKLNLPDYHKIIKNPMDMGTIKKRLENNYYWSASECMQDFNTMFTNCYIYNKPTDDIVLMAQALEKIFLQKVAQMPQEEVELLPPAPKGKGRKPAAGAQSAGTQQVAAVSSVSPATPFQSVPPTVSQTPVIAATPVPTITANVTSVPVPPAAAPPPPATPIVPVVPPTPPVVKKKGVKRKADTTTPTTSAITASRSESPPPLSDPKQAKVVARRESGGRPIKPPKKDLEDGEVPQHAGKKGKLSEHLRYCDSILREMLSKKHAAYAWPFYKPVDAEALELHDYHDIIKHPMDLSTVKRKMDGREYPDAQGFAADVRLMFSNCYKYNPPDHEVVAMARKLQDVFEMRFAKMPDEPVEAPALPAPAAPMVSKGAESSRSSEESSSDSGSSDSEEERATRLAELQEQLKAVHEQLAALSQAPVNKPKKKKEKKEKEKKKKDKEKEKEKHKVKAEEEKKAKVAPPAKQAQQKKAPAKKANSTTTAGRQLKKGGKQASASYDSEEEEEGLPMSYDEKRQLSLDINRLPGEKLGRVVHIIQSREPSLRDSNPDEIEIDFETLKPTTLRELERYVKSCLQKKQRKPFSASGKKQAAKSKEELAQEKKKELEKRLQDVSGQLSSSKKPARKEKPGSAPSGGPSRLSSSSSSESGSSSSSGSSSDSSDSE

[18] = target: Transcription initiation factor TFIID subunit 1-like (Homo sapiens, UniProt Q8IZX4); assay: Binding affinity to human partial length DNA-tagged TAF1L BD2 expressed in bacteria by BROMOscan method
[19] = target: T4, Bromodomain-containing protein 4; assay: Selectivity ratio of Kd for human partial length DNA-tagged BRD4 isoform long BD1 to Kd for human partial length DNA-tagged BRD4 isoform long BD2
Protein polybromo-1 = Protein polybromo-1 (Homo sapiens, UniProt Q86U86); assay: Binding affinity to human partial length DNA-tagged PBRM1 BD1 expressed in bacteria by BROMOscan method
Chain of Protein polybromo-1 (Q86U86 whole entry): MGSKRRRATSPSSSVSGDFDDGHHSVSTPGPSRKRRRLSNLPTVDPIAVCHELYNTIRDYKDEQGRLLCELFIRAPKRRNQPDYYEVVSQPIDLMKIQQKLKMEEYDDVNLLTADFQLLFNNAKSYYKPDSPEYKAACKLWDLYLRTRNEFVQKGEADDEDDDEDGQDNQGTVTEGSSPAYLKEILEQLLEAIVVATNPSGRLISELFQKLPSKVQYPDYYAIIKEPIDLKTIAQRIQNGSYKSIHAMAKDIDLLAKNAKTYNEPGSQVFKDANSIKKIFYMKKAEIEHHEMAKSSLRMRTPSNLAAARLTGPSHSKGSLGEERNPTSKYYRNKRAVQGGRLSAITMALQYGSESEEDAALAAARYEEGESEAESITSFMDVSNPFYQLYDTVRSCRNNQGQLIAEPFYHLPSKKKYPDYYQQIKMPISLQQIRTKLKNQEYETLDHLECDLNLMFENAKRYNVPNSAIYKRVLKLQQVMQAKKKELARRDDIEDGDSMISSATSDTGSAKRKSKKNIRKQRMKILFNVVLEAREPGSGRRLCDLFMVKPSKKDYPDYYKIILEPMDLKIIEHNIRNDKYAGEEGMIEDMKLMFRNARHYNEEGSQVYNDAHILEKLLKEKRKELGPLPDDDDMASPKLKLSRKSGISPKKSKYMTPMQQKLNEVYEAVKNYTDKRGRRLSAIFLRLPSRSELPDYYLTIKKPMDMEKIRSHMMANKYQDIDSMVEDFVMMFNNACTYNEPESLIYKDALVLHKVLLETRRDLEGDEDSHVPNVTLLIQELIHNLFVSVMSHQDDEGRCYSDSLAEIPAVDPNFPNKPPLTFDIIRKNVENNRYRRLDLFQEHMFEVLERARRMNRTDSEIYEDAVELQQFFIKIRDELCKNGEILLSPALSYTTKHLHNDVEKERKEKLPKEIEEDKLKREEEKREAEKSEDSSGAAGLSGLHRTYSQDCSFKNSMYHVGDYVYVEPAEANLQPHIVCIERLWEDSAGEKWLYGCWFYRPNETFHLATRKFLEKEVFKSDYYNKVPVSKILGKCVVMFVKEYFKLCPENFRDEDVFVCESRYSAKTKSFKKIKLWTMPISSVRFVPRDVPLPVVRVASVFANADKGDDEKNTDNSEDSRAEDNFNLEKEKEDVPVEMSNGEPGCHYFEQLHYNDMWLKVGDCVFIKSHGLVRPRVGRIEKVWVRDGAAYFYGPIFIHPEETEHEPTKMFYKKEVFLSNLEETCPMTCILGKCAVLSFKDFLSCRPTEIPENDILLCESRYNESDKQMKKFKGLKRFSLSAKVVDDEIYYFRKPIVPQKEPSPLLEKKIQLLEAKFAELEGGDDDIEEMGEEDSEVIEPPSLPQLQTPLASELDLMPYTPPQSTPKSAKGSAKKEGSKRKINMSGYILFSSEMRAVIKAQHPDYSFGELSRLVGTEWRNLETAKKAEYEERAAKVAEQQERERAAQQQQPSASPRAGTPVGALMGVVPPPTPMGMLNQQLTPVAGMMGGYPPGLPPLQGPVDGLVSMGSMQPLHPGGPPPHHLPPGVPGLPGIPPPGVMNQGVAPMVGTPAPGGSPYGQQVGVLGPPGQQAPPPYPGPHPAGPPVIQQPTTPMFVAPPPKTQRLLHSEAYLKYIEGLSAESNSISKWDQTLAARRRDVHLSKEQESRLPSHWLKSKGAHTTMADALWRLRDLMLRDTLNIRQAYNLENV

[20] = target: SWI/SNF-related matrix-associated actin-dependent regulator of chromatin subfamily A member 2 (Homo sapiens, UniProt P51531); assay: Binding affinity to human partial length DNA-tagged SMARCA2 expressed in bacteria by BROMOscan method

For `CC(=O)N1c2ccc(C3=CCNCC3)cc2N(Cc2ccccc2CO)C[C@@H]1C1CC1`, the Kd [1] was over 30.2 µM, the IC50 [2] was 0.0501 µM and the IC50 [3] was 1.26 µM. The Ratio IC50 (Homo sapiens [4]) was 8, the Papp [5] was 11 ×10⁻⁶ cm/s and the IC50 (Peregrin) was 20 µM. It also gave a Kd [6] of over 30.2 µM, an IC50 (Blood) of 1 µM and an IC50 [7] of 2.51 µM. It also gave an IC50 [8] of 3.16 µM, an IC50 (PBMC) of 0.0398 µM and an IC50 [9] of 0.316 µM. For the same molecule, the solubility at 16 h [10] was 386 µg/mL (≈ 924 µM), the Ratio IC50 (Homo sapiens [11]) was 25 and the Kd [12] was 15.1 µM. It also gave a Kd [13] of 1.55 µM, a chromatographic logD (physchem) of 2.3 and a Kd [14] of over 30.2 µM. The Kd [15] was 14.5 µM, the Kd [16] was over 30.2 µM and the Selectivity ratio [17] was 47. For the same molecule, the Kd [18] was over 30.2 µM, the Selectivity ratio [19] was 229 and the Kd (Protein polybromo-1) was over 30.2 µM. The Kd [20] was over 30.2 µM.
